# According to ChEMBL document CHEMBL4808217, “Design, Synthesis, and Characterization of 4-Aminoquinazolines as Potent Inhibitors of the G Protein-Coupled Receptor Kinase 6 (GRK6) for the Treatment of Multiple Myeloma” (J Med Chem, 2021):
# How the values were obtained:
# [1] = target: T1, Aurora kinase A (Homo sapiens, UniProt O14965); assay: Inhibition of recombinant full length human Aurora A using LRRASLG as substrate incubated for 40 mins in presence of [gamma-33ATP] by radiometric scintillation counting method
# T1 sequence (O14965 whole entry): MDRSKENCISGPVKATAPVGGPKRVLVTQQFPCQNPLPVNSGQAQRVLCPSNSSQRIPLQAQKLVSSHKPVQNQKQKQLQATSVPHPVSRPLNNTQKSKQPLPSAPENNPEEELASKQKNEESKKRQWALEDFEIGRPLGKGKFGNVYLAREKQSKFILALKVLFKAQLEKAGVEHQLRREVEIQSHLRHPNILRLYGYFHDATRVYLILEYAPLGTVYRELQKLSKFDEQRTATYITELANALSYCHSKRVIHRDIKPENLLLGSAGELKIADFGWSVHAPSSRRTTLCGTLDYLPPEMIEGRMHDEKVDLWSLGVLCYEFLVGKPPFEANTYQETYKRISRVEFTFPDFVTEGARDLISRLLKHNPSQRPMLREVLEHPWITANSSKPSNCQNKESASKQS
# [2] = target: T2, G protein-coupled receptor kinase 6 (Homo sapiens, UniProt P43250); assay: Inhibition of recombinant full-length human GRK6 using casein as substrate measured after 80 mins in presence of [gamma33P]ATP by radiometric scintillation counting method
# [3] = target: T2, G protein-coupled receptor kinase 6; assay: Binding affinity to FLAG-tagged GRK6 in human KMS11 cells incubated for […] by ITDR assay; type: cell-based, KMS-11
# [4] = target: Insulin-like growth factor 1 receptor (Homo sapiens, UniProt P08069); assay: Inhibition of recombinant human IGF-1R (959 to end residues) using KKKSPGEYVNIEF as substrate incubated for 40 mins in presence of [gamma-33ATP] by radiometric scintillation counting method
# [5] = target: T3, Beta-adrenergic receptor kinase 1 (Homo sapiens, UniProt P25098); assay: Inhibition of human GRK2 using casein as substrate in presence of [gamma33P]ATP by radiometric hotspot kinase assay
# T3 sequence (P25098 whole entry): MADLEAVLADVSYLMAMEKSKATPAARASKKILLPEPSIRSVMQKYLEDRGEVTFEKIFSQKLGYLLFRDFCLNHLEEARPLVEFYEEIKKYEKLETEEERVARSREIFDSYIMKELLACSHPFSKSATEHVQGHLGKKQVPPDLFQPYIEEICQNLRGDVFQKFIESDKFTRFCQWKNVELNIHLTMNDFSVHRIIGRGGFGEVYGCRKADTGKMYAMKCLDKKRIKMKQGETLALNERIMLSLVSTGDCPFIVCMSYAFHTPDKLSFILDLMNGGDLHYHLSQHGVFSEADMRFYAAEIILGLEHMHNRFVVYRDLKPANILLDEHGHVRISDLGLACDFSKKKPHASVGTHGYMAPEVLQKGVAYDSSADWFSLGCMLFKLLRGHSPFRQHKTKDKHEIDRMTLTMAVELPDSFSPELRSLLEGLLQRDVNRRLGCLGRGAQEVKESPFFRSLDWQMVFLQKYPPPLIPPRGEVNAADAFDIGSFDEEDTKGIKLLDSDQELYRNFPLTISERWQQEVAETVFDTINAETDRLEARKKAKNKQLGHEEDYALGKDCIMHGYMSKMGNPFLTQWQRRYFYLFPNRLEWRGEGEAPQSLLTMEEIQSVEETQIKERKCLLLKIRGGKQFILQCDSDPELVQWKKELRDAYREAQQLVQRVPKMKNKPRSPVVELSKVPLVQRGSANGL
# [6] = target: T4, Rhodopsin kinase GRK7 (Homo sapiens, UniProt Q8WTQ7); assay: Inhibition of recombinant full length human GRK7 using casein as substrate incubated for 40 mins in presence of [gamma-33ATP] by scintillation counting based radiometry assay
# T4 sequence (Q8WTQ7 whole entry): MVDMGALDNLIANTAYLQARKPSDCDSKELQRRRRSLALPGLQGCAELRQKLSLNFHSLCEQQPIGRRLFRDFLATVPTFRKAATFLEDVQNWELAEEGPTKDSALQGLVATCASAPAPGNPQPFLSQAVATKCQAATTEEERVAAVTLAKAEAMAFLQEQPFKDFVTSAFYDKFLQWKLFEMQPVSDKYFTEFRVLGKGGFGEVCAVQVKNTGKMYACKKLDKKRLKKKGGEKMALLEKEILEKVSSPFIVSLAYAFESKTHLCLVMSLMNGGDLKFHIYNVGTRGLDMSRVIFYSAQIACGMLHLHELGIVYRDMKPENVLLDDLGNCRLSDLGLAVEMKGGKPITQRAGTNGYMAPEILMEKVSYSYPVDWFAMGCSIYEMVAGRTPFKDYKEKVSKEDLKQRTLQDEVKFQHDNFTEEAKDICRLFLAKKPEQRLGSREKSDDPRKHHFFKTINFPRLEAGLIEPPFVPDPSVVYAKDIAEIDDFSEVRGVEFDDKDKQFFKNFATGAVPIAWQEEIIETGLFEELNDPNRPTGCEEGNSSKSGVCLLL
# [7] = target: T2, G protein-coupled receptor kinase 6; assay: Inhibition of human GRK6 using casein as substrate in presence of [gamma33P]ATP by radiometric hotspot kinase assay
# [8] = target: T5, G protein-coupled receptor kinase 3 (Homo sapiens, UniProt P35626); assay: Inhibition of human GRK3 using casein as substrate in presence of [gamma33P]ATP by radiometric hotspot kinase assay
# T5 sequence (P35626 whole entry): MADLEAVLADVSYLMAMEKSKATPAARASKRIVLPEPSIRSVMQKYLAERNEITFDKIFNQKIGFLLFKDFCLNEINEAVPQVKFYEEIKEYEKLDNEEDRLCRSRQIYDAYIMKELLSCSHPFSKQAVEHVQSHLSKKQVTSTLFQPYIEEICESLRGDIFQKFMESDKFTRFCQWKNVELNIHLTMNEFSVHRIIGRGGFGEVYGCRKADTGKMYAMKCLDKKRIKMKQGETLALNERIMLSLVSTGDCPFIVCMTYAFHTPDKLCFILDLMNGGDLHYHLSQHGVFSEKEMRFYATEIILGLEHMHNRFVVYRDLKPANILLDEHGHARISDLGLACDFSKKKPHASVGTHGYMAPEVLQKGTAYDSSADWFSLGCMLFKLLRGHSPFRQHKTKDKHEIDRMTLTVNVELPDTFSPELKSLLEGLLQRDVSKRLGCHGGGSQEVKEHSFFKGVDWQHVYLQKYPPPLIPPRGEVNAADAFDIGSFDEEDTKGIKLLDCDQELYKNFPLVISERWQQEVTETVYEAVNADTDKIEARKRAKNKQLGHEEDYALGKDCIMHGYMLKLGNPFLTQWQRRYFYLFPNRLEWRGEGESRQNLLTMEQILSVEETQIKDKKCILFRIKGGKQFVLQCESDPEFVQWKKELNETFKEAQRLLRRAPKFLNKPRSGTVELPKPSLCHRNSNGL
# [9] = target: T6, Rhodopsin kinase GRK1 (Homo sapiens, UniProt Q15835); assay: Inhibition of human GRK1 using casein as substrate in presence of [gamma33P]ATP by radiometric hotspot kinase assay
# T6 sequence (Q15835 whole entry): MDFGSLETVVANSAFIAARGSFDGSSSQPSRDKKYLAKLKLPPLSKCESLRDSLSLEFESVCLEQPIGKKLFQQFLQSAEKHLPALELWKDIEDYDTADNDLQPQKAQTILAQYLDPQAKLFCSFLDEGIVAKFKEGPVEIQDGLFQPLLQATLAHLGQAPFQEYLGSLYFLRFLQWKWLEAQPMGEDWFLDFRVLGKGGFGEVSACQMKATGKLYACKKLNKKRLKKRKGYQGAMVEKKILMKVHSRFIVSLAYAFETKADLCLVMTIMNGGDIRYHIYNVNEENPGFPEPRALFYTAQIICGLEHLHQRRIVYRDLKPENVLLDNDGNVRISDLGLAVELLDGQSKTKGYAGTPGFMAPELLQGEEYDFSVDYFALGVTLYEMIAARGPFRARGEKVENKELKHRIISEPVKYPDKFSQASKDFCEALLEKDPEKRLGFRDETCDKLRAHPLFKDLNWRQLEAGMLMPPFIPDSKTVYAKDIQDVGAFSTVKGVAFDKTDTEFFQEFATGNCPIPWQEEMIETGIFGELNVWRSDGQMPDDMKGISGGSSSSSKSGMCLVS
# [10] = target: G protein-coupled receptor kinase 4 (Homo sapiens, UniProt P32298); assay: Inhibition of human GRK4 using casein as substrate in presence of [gamma33P]ATP by radiometric hotspot kinase assay
# G protein-coupled receptor kinase 4, sequence (P32298 whole entry): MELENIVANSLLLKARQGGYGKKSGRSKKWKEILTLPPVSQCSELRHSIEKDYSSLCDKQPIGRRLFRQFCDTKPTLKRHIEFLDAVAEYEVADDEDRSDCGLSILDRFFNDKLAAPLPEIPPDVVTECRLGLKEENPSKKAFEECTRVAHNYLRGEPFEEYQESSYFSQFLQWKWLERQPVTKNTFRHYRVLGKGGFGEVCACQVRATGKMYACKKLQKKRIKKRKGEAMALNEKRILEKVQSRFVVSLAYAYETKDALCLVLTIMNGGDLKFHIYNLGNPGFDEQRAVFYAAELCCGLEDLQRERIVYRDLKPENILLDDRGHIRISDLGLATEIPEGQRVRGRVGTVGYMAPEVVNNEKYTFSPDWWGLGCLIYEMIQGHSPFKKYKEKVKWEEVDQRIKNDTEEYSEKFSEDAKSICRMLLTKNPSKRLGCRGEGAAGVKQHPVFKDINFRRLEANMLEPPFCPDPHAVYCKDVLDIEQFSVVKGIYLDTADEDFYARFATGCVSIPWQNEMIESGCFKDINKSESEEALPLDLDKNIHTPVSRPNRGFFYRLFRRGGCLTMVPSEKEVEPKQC
# T2 sequence (P43250 whole entry): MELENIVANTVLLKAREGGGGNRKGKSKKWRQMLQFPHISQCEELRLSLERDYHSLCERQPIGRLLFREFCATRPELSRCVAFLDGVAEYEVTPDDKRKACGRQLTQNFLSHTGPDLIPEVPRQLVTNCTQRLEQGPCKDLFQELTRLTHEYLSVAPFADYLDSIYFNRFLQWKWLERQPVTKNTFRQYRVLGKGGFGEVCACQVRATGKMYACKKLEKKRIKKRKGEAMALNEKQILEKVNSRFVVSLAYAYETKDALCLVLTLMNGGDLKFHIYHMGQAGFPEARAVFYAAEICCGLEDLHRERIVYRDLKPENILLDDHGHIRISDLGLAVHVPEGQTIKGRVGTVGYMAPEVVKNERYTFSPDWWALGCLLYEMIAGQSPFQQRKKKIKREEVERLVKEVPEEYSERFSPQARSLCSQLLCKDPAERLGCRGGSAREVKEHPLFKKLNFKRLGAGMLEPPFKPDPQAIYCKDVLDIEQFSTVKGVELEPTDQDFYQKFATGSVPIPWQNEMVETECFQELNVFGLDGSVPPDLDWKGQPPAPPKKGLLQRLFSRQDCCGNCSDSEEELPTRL
# Insulin-like growth factor 1 receptor, sequence (P08069 31-736 limits assumed): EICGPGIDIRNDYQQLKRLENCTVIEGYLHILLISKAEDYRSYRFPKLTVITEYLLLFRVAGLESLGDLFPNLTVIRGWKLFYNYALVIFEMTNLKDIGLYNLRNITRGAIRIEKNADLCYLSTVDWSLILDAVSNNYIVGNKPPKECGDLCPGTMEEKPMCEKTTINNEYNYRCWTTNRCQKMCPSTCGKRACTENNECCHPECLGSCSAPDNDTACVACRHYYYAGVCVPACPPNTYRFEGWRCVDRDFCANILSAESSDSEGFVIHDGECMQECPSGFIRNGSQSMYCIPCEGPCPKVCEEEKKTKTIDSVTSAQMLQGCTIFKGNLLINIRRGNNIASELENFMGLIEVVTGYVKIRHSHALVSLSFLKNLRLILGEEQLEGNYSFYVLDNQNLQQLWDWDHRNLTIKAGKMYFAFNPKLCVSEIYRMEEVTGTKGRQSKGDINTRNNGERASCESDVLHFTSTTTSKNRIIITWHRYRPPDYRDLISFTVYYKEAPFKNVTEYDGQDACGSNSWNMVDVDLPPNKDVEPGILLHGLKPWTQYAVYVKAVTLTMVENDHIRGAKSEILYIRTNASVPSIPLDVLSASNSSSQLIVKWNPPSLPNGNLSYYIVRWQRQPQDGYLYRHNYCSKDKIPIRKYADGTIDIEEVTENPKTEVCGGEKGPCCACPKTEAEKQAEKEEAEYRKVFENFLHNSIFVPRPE
# Insulin-like growth factor 1 receptor, sequence (P08069 741-1367 limits assumed): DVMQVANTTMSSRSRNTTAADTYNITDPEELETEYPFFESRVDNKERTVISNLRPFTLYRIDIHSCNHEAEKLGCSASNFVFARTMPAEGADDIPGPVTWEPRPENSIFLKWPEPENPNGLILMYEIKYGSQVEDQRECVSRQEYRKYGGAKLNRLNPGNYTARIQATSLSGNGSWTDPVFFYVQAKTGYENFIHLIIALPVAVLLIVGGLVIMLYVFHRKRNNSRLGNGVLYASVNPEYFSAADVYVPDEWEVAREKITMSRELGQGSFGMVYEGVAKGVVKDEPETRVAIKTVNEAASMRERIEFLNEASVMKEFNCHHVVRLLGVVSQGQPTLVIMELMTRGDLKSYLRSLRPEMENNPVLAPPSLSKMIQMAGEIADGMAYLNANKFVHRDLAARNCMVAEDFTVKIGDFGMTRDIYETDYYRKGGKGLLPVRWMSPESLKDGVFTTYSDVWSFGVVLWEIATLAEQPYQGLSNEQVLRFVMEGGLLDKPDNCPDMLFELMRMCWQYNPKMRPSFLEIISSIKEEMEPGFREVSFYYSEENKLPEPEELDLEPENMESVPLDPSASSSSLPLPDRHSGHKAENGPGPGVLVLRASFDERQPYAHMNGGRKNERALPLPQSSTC
Compound,IC50 [1] [nM],IC50 [2] [nM],further results
CCc1cc(Nc2nc(N[C@@H](C)c3ccc(C)cc3)nc3cccc(F)c23)n[nH]1,75,27,–
CCc1cc(Nc2nc(NCCc3ccc(F)cc3)nc3ccccc23)n[nH]1,41,190,–
CCc1cc(Nc2nc(NCc3ccc(F)cc3)nc3ccccc23)n[nH]1,–,250,–
CCc1cc(Nc2nc(NCCc3ccc(F)cc3)nc3cccc(F)c23)n[nH]1,180,110,–
CCc1cc(Nc2nc(N[C@@H](C)c3ncc(F)cn3)nc3cccc(F)c23)n[nH]1,80,230,–
CCc1cc(Nc2nc(N[C@@H](C)c3ccc(F)cc3)nc3cc(F)ccc23)n[nH]1,–,100,–
Fc1cccc2nc(NCCc3ccccc3)nc(Nc3ccon3)c12,–,> 10000,–
CCc1cc(Nc2nc(NCc3ccc(Cl)cc3)nc3cccc(OC)c23)n[nH]1,> 10000,16,IC50 [3]: 2000 nM; IC50 [4]: > 10000 nM
CCc1cc(Nc2nc(NCc3ccc(Cl)cc3)nc3cccc(C)c23)n[nH]1,1200,27,IC50 [4]: > 10000 nM
CCc1cc(Nc2nc(N[C@@H](C)c3ccc(F)cn3)nc3cccc(C)c23)n[nH]1,330,11,IC50 [3]: 610 nM
CCc1cc(Nc2nc(NCCc3ccccc3)nc3cccc(OC)c23)n[nH]1,> 10000,10,IC50 [4]: > 10000 nM
CCc1cc(Nc2nc(NCCc3ccc(F)cc3)nc3cc(Cl)ccc23)n[nH]1,–,1100,–
CCc1cc(Nc2nc(N[C@@H](C)c3ccc(Cl)cn3)nc3cccc(OC)c23)n[nH]1,22000,3.5,–
CCc1cc(Nc2nc(N[C@@H](C)c3ccc(F)cc3)nc3ccc(OC)cc23)n[nH]1,–,140,–
CCc1cc(Nc2nc(N[C@@H](C)c3ccc(F)cc3)nc3cccc(F)c23)n[nH]1,51,41,–
CCc1cc(Nc2nc(NC3(c4ccc(Cl)cc4)CC3)nc3ccccc23)n[nH]1,–,280,–
CCc1cc(Nc2nc(N[C@@H](C)c3ccc(F)cn3)nc3cccc(OC)c23)n[nH]1,860,7.2,IC50 [5]: > 10000 nM; IC50 [3]: 2000 nM; IC50 [6]: 15 nM; IC50 [7]: 18 nM; IC50 [8]: > 10000 nM; IC50 [9]: 190 nM; IC50 [10]: 97 nM
CCOc1ccc(Nc2nc(N[C@@H](C)c3ccc(F)cn3)nc3cccc(F)c23)cn1,–,> 10000,–
CCc1cc(Nc2nc(NCCN3CCOCC3)nc3cccc(F)c23)n[nH]1,–,1400,–

Compound,IC50 [1] [nM],IC50 [2] [nM],further results
CCc1cc(Nc2nc(NCc3ccc(Cl)cc3OC)nc3cccc(C)c23)n[nH]1,1200,6,IC50 [3]: 170 nM
CCc1cc(Nc2nc(N[C@@H](C)c3ccc(F)cc3)nc3cc(Cl)ccc23)n[nH]1,–,440,–
CCc1cc(Nc2nc(NCc3ccc(Cl)cc3OC)nc3ccccc23)n[nH]1,–,40,–
CCc1cc(Nc2nc(N[C@@H](C)c3cccc(F)c3)nc3ccccc23)n[nH]1,–,340,–
CCc1cc(Nc2nc(N[C@@H](C)c3ccc(F)cc3)nc3ccccc23)n[nH]1,11,120,–
CCc1cc(Nc2nc(NCc3ccc(F)cn3)nc3cccc(OC)c23)n[nH]1,4600,18,IC50 [5]: > 10000 nM; IC50 [3]: 10000 nM; IC50 [6]: 36 nM; IC50 [7]: 33 nM; IC50 [8]: > 10000 nM; IC50 [4]: > 10000 nM; IC50 [9]: 450 nM; IC50 [10]: 190 nM
CCc1cc(Nc2nc(N[C@@H](C)c3ccc(Cl)cc3)nc3ccccc23)n[nH]1,–,70,–
CCc1cc(Nc2nc(NCCc3ccc(F)cc3)nc3cc(F)ccc23)n[nH]1,–,180,–
CCc1cc(Nc2nc(NCCc3ccc(F)cc3)nc3ccc(OC)cc23)n[nH]1,–,460,–
Fc1cccc2nc(NCCc3ccccc3)nc(Nc3cc[nH]n3)c12,–,2500,–
CCc1cc(Nc2nc(N[C@H](C)c3ccc(F)cc3)nc3ccccc23)n[nH]1,–,1400,–
CCc1cc(Nc2nc(NCCc3ccc(F)cc3)nc3ccc(F)cc23)n[nH]1,–,310,–
CCc1cc(Nc2nc(N[C@@H](C)c3ccc(OC)cc3)nc3ccccc23)n[nH]1,–,290,–
CCc1cc(Nc2nc(NCCc3ccccc3)nc3cccc(F)c23)n[nH]1,–,20,–
CCn1cnc(Nc2nc(N[C@@H](C)c3ccc(F)cn3)nc3cccc(F)c23)c1,–,280,–
CCc1cc(Nc2nc(N[C@@H](C)c3ccc(F)cc3)nc3ccc(F)cc23)n[nH]1,–,160,–
CCc1cc(Nc2nc(N[C@@H](C)C3CCCCC3)nc3ccccc23)n[nH]1,–,960,–
CCc1cc(Nc2nc(N[C@@H](C)c3ccc(C#N)cn3)nc3cccc(F)c23)n[nH]1,220,91,–
CCc1cc(Nc2nc(N[C@@H](C)c3ccc(F)cn3)nc3cccc(F)c23)n[nH]1,25,29,–
